# Experimental data reported in patent US11679123B2, “N-acylated hyaluronic acid for hyperuricemia and gouty arthritis” (Queen's University at Kingston, priority 2018, dated 2023).
# Assays:
# inflammation factors = test: Serum inflammation factors by ELISA in rats with MSU-induced acute gout; assay type: in vivo, Wistar rats; details: for 6-Keto-PGF1α / IFN-γ / IL-1α / IL-1β / IL-6 / IL-8 / IL-10 / IL-16 / IP-10 / MCP-1 / MIP-1α / NF-κB / PGE2 / TNF-α / TNF-β: serum, MSU-induced acute gout rats, mean ± S.D., n=10
# Experimental: (§1) An experimental model of MSU-induced gouty arthritis was used in order to evaluate the anti-inflammatory activities of BHA. Rats were randomly divided into five groups (n=10), include a control group (NC), a model group (MC), a 0.3 mg/kg colchicine group (COL), a 10 μg BHA group (10BHA) and a 50 μg BHA group (50BHA). MSU crystals were suspended in 0.9% sterile saline (30 mg/mL) prior to use. The colchicine group rats were orally administrated colchicine (0.3 mg/kg) for 8 days, and all rats except for the control group were injected with 3 mg of MSU (Sigma, USA) at the 6th day into the right ankle synovial space 1 h after gavage feeding. Meanwhile a turbid sample of MSU mixed with 100 μg of BHA or 500 μg of BHA per mL of solution for 10BHA rats or 50BHA rats. At the 8th day, 1 h after the administration of the final agents, blood was sampled from the caudal veins of the rats and the right ankle joints of the rats were collected and fixed in 4% paraformaldehyde. Serum was separated and stored at −80° C. prior to analysis (FIG. 2A, E).
# The serum levels of interleukin-1α (IL-1α, 41734), IL-1β (43360), interleukin-6 (IL-6, 41731), interleukin-8 (IL-8, 41716), IL-10 (41736), interleukin-16 (IL-16, 41628), C—X—C motif chemokine 10 (CXCL10, 41570), monocyte chemoattractant protein 1 (MCP-1, 41640), macrophage inflammatory protein 1α (MIP-1α, 41645), interferon gamma (IFN-γ, 41739), TNF-α (41721), tumor necrosis factor-β (TNF-β, 41673), nuclear factor κ-light-chain-enhancer of activated B cells (NF-κB, 43358), 6-keto-prostaglandin F-1α (6-Keto-PGF1α, 41809) and prostaglandin E2 (PGE2, 41609) in rats were determined by the ELISA method using related Elisa Kits (Yuanye Bio-Technology Co. Ltd, Shanghai, China) according to the manufacturer's instructions.
# hyperuricemic mice = test: Serum UA in OXO- and yeast extract-induced hyperuricemic mice; assay type: in vivo, Balb/C mice; details: BHA (10 μg and 50 μg intraperitoneal), P<0.05
# Experimental: Male Balb/C mice (n=50, 8 weeks: 18-22 g), purchased from Yisi Experimental Animal Technology Company Ltd, Jilin, China (SCXK (Ji)-2016-0003). These mice were housed in plastic cages and maintained on a 12-h light/12-h dark cycle (lights on 7:00-19:00 h) under standard laboratory conditions of 55% relative humidity and 23±1° C. They were given standard feed and tap water ad libitum. All experimental procedures were approved by the Animal Ethics Committee of Jilin University (Reference NO. 201605).
# Due to the presence of uricase in mice, a hyperuricemic mouse model was established by using uricase inhibitor and large amounts of purine. Mice were randomly divided into five groups (n=10), including the control group (NC), model group (MC), 20 mg/kg of AL (Shimao Tianjie Pharmaceutical Co. Ltd, Jiangsu, China) group, 10 μg BHA group (10BHA) and 50 μg BHA group (50BHA). Oral administration of AL and intraperitoneal injection of BHA were administered according to the required dose, and all mice were gavage fed 20 g/kg yeast extract powder 12 h prior to the administration of AL and BHA except for NC mice for 8 days. […]
# (§2) The serum UA concentrations and XO levels in the serum and liver were determined with a standard diagnostic kit (MAK077, MAK078 Sigma, USA) according to the manufacturer's instructions.
# [1] = system: rats with MSU-induced acute gout; test: MSU crystal-induced acute gout in rats: ankle swelling ratio; assay type: in vivo, Wistar rats; details: P<0.01; for ankle swelling in comparison with the MSU treated group: at 4 h, 12 h and 48 h
# Experimental: Male Wistar rats (n=50, 8 weeks: 160-200 g) were purchased from Liaoning Changsheng Biotechnology Company Ltd, Jilin, China (SCXK (Liao)-2015-0001). These rats were housed in plastic cages and maintained on a 12-h light/12-h dark cycle (lights on 7:00-19:00 h) under standard laboratory conditions of 55% relative humidity and at 23° C.±1° C. They were given standard chow (Liaoning Changsheng Biotechnology Company Ltd, Jilin, China) and tap water ad libitum. All experimental procedures were approved by the Animal Ethics Committee of Jilin University (Reference NO. 201605).
# as §1
# The right ankle circumferences of all rats at 0, 4, 12, 24 and 48 h after MSU injection were measured. The swelling ratio (%) was used to evaluate the gouty arthritis and calculated according to the change of the circumference via the formula: Swelling ratio (%)=(Ct−C0)/C0, wherein, Ct represented the circumference at time t (in h) and C0 represented the circumference at 0 h.
# xanthine oxidase (XO) = test: XO levels in serum and liver of hyperuricemic mice; assay type: in vivo, Balb/C mice
# Experimental: Due to the presence of uricase in mice, a hyperuricemic mouse model was established by using uricase inhibitor and large amounts of purine. Mice were randomly divided into five groups (n=10), including the control group (NC), model group (MC), 20 mg/kg of AL (Shimao Tianjie Pharmaceutical Co. Ltd, Jiangsu, China) group, 10 μg BHA group (10BHA) and 50 μg BHA group (50BHA). Oral administration of AL and intraperitoneal injection of BHA were administered according to the required dose, and all mice were gavage fed 20 g/kg yeast extract powder 12 h prior to the administration of AL and BHA except for NC mice for 8 days. From the 6th to 8th day, 1-h prior to AL and BHA administration, 300 mg/kg of OXO (Sigma, USA) was intraperitoneally injected to all of the mice except those in the control group. At 1 h after the final drug administration, blood was sampled from caudal veins of the mice, serum was separated and their livers were quickly collected (FIG. 3A, E). All samples were stored at −80° C. until assay measurements were performed.
# as §2
# [2] = 10 μg BHA intra-articular with MSU (10BHA)
# [3] = 50 μg BHA intra-articular with MSU (50BHA)
substance,measurement,setting,value
N-butyrylated HA [BHA],decrease of serum IL-8 compared to rats injected with MSU,"inflammation factors; 10 μg BHA, P<0.05",7.13%
same,decrease of serum MCP-1 compared to rats injected with MSU,"inflammation factors; 10 μg BHA, P<0.05",7.76%
same,increase of serum IL-10 compared to rats injected with MSU,"inflammation factors; 10 μg BHA, P<0.05",9.49%
same,decrease of serum IFN-γ compared to rats injected with MSU,"inflammation factors; 50 μg BHA, P<0.05",33.18%
same,decrease of serum IL-1β compared to rats injected with MSU,"inflammation factors; 50 μg BHA, P<0.05",5.56%
same,decrease of serum IL-8 compared to rats injected with MSU,"inflammation factors; 50 μg BHA, P<0.05",6.55%
same,decrease of serum MCP-1 compared to rats injected with MSU,"inflammation factors; 50 μg BHA, P<0.05",15.58%
same,6-Keto-PGF1α,inflammation factors; [2],257 ± 20.8
same,IFN-γ,inflammation factors; [2],107.4 ± 7.6 pg/mL
same,IL-1α,inflammation factors; [2],71.5 ± 11.2 pg/mL
same,IL-1β,inflammation factors; [2],19.6 ± 1.6 pg/mL
same,IL-6,inflammation factors; [2],78.5 ± 5.6 pg/mL
same,IL-8,inflammation factors; [2],213.8 ± 11.4 pg/mL
same,IL-10,inflammation factors; [2],12 ± 0.9 pg/mL
same,IL-16,inflammation factors; [2],399.3 ± 14.8 pg/mL
same,IP-10,inflammation factors; [2],154.3 ± 18^ pg/mL
same,MCP-1,inflammation factors; [2],321.2 ± 20.5 pg/mL
same,MIP-1α,inflammation factors; [2],282.8 ± 23.6 pg/mL
same,NF-κB,inflammation factors; [2],589.8 ± 104. pg/mL
same,PGE2,inflammation factors; [2],209.7 ± 17.3 pg/mL
same,TNF-α,inflammation factors; [2],155.9 ± 11.4 pg/mL
same,TNF-β,inflammation factors; [2],139.1 ± 25.7 pg/mL
same,6-Keto-PGF1α,inflammation factors; [3],262 ± 10.8
same,IFN-γ,inflammation factors; [3],75.4 ± 31.7 pg/mL
same,IL-1α,inflammation factors; [3],77.4 ± 13 pg/mL
same,IL-1β,inflammation factors; [3],18.8 ± 0.8 pg/mL
same,IL-6,inflammation factors; [3],75 ± 5.3 pg/mL
same,IL-8,inflammation factors; [3],216.6 ± 11.6 pg/mL
same,IL-10,inflammation factors; [3],11.6 ± 1.1 pg/mL
same,IL-16,inflammation factors; [3],401.2 ± 25.1 pg/mL
same,IP-10,inflammation factors; [3],150.5 ± 7.5 pg/mL
same,MCP-1,inflammation factors; [3],292 ± 27.8 pg/mL
same,MIP-1α,inflammation factors; [3],283.9 ± 12.7 pg/mL
same,NF-κB,inflammation factors; [3],513 ± 74.1 pg/mL
same,PGE2,inflammation factors; [3],193.2 ± 12.7 pg/mL
same,TNF-α,inflammation factors; [3],152.7 ± 12.1 pg/mL
same,TNF-β,inflammation factors; [3],129 ± 21.9 pg/mL
same,serum UA levels,hyperuricemic mice,significantly suppressed serum UA levels
same,swelling ratio reduction,"[1]; 10 μg BHA, at 12 h (best suppression)",11.0%
same,swelling ratio reduction,"[1]; 50 μg BHA, at 48 h (best suppression)",9.5%
same,ankle swelling in comparison with the MSU treated group,[1]; BHA 10 μg,suppressed the ankle swelling
same,ankle swelling in comparison with the MSU treated group,[1]; BHA 50 μg,suppressed the ankle swelling
same,reduction of XO levels in the liver compared to untreated mice,"xanthine oxidase (XO); 10 μg BHA, P<0.05",19.78%
same,XO activity in the livers of hyperuricemic mice,xanthine oxidase (XO); 50 μg BHA,no significant effect on XO activity
